Assay results taken from patent publication US9293713B2, “Arylamine compound” (RICOH COMPANY, LTD., priority 2012, dated 2016).

Columns and labels:
[1] = Pyrolysis behavior observed by TG-DTA; format: physicochemical; settings: for difference of mass reduced between theoretical value and actual measured value: heating
Experimental: HTL17 synthesized in Example 1 was heated at a range of 25° C. to 450° C. at a temperature increasing rate of 5° C./min and the pyrolysis behavior thereof was observed by TG-DTA [reference: Al2O3, under nitrogen flow (200 mL/min), EXSTAR6000 (product name), product of Seiko Instruments Inc.].
The results are shown in FIG. 2, where the horizontal axis indicates temperature [° C.], the left-hand vertical axis indicates change in mass [mg] and the right-hand vertical axis indicates DTA signal [μV].

[2] = Preparation of ink (evaluation of solubility): degree of solubility from saturated solution; format: physicochemical; settings: for degree of solubility, 1,2,3,4-Tetrahydronaphthalene: solvent 1,2,3,4-tetrahydronaphthalene (Tetralin); for degree of solubility, 2-Propanol: solvent 2-propanol; for degree of solubility, ethyl benzoate: solvent ethyl benzoate; for degree of solubility, Toluene: solvent toluene
Experimental: HTL17 was added to each of toluene, chloroform, 2-propanol, 1,2,3,4-tetrahydronaphthalene (Tetralin®), ethyl benzoate (100 mL respectively), until undissolved compound was observed. The mixture was stirred for 10 minute with refluxing the solvent. Then, mixture was cooled to ambient temperature, and stirred for 1 hour, followed by still standing for 16 hours. The supernatant was filtrated by PTFE filter having thickness of 0.2 μm to obtain saturated solution. The saturated solution was dried under reduced pressure to calculate degree of solubility for each solvent.
Evaluation criteria in Table 4 was described below.

[3] = saturated solution at ambient temperature

Row | difference of mass reduced between theoretical value and actual measured value [1] [%] | difference of mass reduced between theoretical value and actual measured value ([1]; prophetic example) [%] | mass reduction ([1]; from ambient temperature to 250° C., 5° C./min, nitrogen flow) [%] | Compound | degree of solubility, 1,2,3,4-Tetrahydronaphthalene [2, 3] | degree of solubility, 2-Propanol [2, 3] | degree of solubility, ethyl benzoate [2, 3] | degree of solubility, Toluene [2, 3] | degree of solubility, 1,2,3,4-Tetrahydronaphthalene ([2]; prophetic example) | degree of solubility, 2-Propanol ([2]; prophetic example) | degree of solubility, ethyl benzoate ([2]; prophetic example) | degree of solubility, Toluene ([2]; prophetic example)
1 | −0.12 | – | – | CCCCCC(=O)OC1CCC(OC(=O)CCCCC)c2cc(N(c3ccc(-c4ccc(N(c5ccc6c(c5)C(OC(=O)CCCCC)CCC6OC(=O)CCCCC)c5cccc6ccccc56)cc4)cc3)c3cccc4ccccc34)ccc21 (stereo not drawn) [HTL18] | A (The degree of solubility is not less than 5% by mass) | A (The degree of solubility is not less than 5% by mass) | A (The degree of solubility is not less than 5% by mass) | A (The degree of solubility is not less than 5% by mass) | – | – | – | –
2 | – | −0.18 | – | CCCCCC(=O)OC1C=C(c2ccc(N(c3ccc(C4=CC(OC(=O)CCCCC)CCC4OC(=O)CCCCC)cc3)c3ccc(-c4ccc(N(c5ccc(C6=CC(OC(=O)CCCCC)CCC6OC(=O)CCCCC)cc5)c5ccc(C6=CC(OC(=O)CCCCC)CCC6OC(=O)CCCCC)cc5)cc4)cc3)cc2)C(OC(=O)CCCCC)CC1 (stereo not drawn) [HTL34] | – | – | – | – | A (The degree of solubility is not less than 5% by mass) | B (The degree of solubility is not less than 1% by mass but less than 5% by mass.) | A (The degree of solubility is not less than 5% by mass) | A (The degree of solubility is not less than 5% by mass)
3 | – | – | – | c1ccc2cc(N(c3ccc(-c4ccc(N(c5ccc6ccccc6c5)c5cccc6ccccc56)cc4)cc3)c3cccc4ccccc34)ccc2c1 [α,β-TNB, 4,4′-bis[N-(1-naphthyl)-N-(2-naphthyl)amino]biphenyl, reference compound] | A (The degree of solubility is not less than 5% by mass) | C (The degree of solubility is less than 1% by mass) | B (The degree of solubility is not less than 1% by mass but less than 5% by mass.) | A (The degree of solubility is not less than 5% by mass) | – | – | – | –
4 | – | – | – | c1ccc(-c2ccc(N(c3ccc(-c4ccccc4)cc3)c3ccc(-c4ccc(N(c5ccc(-c6ccccc6)cc5)c5ccc(-c6ccccc6)cc5)cc4)cc3)cc2)cc1 [TBPB, N,N,N′,N′-tetra-biphenyl-4-yl-benzidine, reference compound] | – | – | – | – | B (The degree of solubility is not less than 1% by mass but less than 5% by mass.) | C (The degree of solubility is less than 1% by mass) | B (The degree of solubility is not less than 1% by mass but less than 5% by mass.) | A (The degree of solubility is not less than 5% by mass)
5 | −0.16 | – | – | CCCCCC(=O)OC1CCC(OC(=O)CCCCC)c2cc(N(c3ccc(C4(c5ccc(N(c6ccc7c(c6)C(OC(=O)CCCCC)CCC7OC(=O)CCCCC)c6ccc7ccccc7c6)cc5)c5ccccc5-c5ccccc54)cc3)c3ccc4ccccc4c3)ccc21 (stereo not drawn) [HTL33] | A (The degree of solubility is not less than 5% by mass) | B (The degree of solubility is not less than 1% by mass but less than 5% by mass.) | A (The degree of solubility is not less than 5% by mass) | A (The degree of solubility is not less than 5% by mass) | – | – | – | –
6 | – | – | – | c1ccc2c(c1)-c1ccccc1C2(c1ccc(N(c2ccc3ccccc3c2)c2ccc3ccccc3c2)cc1)c1ccc(N(c2ccc3ccccc3c2)c2ccc3ccccc3c2)cc1 [NPAPF, 9,9-bis[4-(N,N-bis-naphthalene-2-yl-amino)phenyl]-9H-florene, reference compound] | B (The degree of solubility is not less than 1% by mass but less than 5% by mass.) | C (The degree of solubility is less than 1% by mass) | C (The degree of solubility is less than 1% by mass) | B (The degree of solubility is not less than 1% by mass but less than 5% by mass.) | – | – | – | –
7 | – | – | 40.0 | CCCCCC(=O)OC1CCC(OC(=O)CCCCC)c2cc(N(c3ccc(-c4ccc(N(c5ccc6c(c5)C(OC(=O)CCCCC)CCC6OC(=O)CCCCC)c5ccc6ccccc6c5)cc4)cc3)c3ccc4ccccc4c3)ccc21 (stereo not drawn) [HTL17] | A (The degree of solubility is not less than 5% by mass) | A (The degree of solubility is not less than 5% by mass) | A (The degree of solubility is not less than 5% by mass) | A (The degree of solubility is not less than 5% by mass) | – | – | – | –
8 | – | – | – | c1ccc2cc(N(c3ccc(-c4ccc(N(c5ccc6ccccc6c5)c5cccc6ccccc56)cc4)cc3)c3cccc4ccccc34)ccc2c1 [α-TNB, 4,4′-tetrakis[N-(1-naphthyl)-N-(2-naphthyl)amino]biphenyl, reference compound] | – | – | – | – | B (The degree of solubility is not less than 1% by mass but less than 5% by mass.) | C (The degree of solubility is less than 1% by mass) | B (The degree of solubility is not less than 1% by mass but less than 5% by mass.) | A (The degree of solubility is not less than 5% by mass)
